Data taken from US20060115431A1, “Procedures of cellular labelling with paramagnetic complexes for mri applications” (Bracco Imaging S.p.A., priority 2002, published 2006).

Key:
U937 cells = experiment: Internalization assay of sonicated Gd-1 particles with U937 cells endowed with macrophagic activity; format: cell-based; details: 0.2 mg Gd-1 in medium, ca. 4 hours incubation
Protocol: The particles obtained by the sonication procedure described in example 5 has been tested in an internalization assay with the U937 cells endowed with macrophagic activity. The incubation medium contains 0.2 mg of Gd-1 (total). After ca. 4 hours of incubation the amount of Gd internalized reached a maximum value of 2×10^−8 moles/mg of protein. This means that ca 10% is taken up by the cells. Such amount is well sufficient to allow the visualisation of these cells. Once the enzymatic degradation process proceeds the signal intensity progressively increases to reach a steady state which lasts for a time long enough for the type of applications of this protocol.

[1] = system: U937 monocytes differentiated to macrophages; experiment: Intracellular esterase activity on Gd-1 in intact cells; format: cell-based
Protocol: An experiment for evaluating the enzymatic activity inside intact cells was set up, using Gd-1 particles as probes. For this purpose, different capsules containing about 2×10^6 cells (U937 monocytes differentiated to macrophages as described above) were incubated with ca. 5 mg of Gd-1 particles suspended in 5 mL medium (RPMI) for four hours at 37° C. After this period the cells were washed three times with PBS, covered with further 5 ml RPMI and re-incubated for different times at 37° C. In this way it was possible to isolate the contribution deriving from the esterase-catalysed hydrolysis of Gd-1 particles for the time interval that […] the internalisation step. The proton relaxation rate was measured at successive time intervals (0.5, 1, 2 hours). After 4 hours incubation in the presence of Gd-1 particles the cells internalise about 60 nmol complex, but only 50% of the internalised particles is hydrolysed in this time and contributes to the total relaxivity. In fact, the relaxivity of the cytosolic extract is 2.5 when the cells are resuspended in a medium devoid of Gd-1 and raises to 3.7 in the following two hours of enzymatic hydrolysis. It can be therefore assumed that 80% of Gd-1 internalised particles have been solubilised by cellular esterases (FIG. 5).

U937 monocytes = experiment: Phagocytic uptake of Gd-1 particles on U937 monocytes differentiated with TPA; format: cell-based
Protocol: The phagocytic uptake of the Gd-1 particles was carried out on U937 monocytes previously treated for three days with TPA to induce cell differentiation. The size of the Gd-1 particles was determined by electron microscope observation and the measured diameter ranged from 0.5 to 10 μm. Most particles had diameter <10 μm, which is sufficiently small to allow the phagocytic process. The uptake was carried out at 37° C. and the cells were incubated with two different amounts of Gd-1 at subsequent times (1 to 12 hours). After incubation at 37° C. for several hours, the medium was removed and the cells were washed three times with 5 mL PBS. In these conditions, Gd-1 particles suspended in the medium are not solubilised; in fact, the relaxivity of the medium remains very close to that of pure water (0.45 s^−1). The amount of Gd(III) detected in the cells is directly proportional to incubation time and in 12 hours the saturation of the kinetic curve is not reached (FIG. 3). As expected, the amount of phagocyted Gd(III) is proportional to the amount of complex added to the culture medium at time zero. It is interesting to compare this behaviour with the water proton relaxation rate in the cytosolic extract. This was obtained by freezing three times the cells at −80° C. after completion of phagocytosis. […]

neutrophiles = experiment: Labelling of neutrophiles with sonicated Gd-1 particles; format: cell-based; details: ca. […]10^6 neutrophiles, 0.4 mg particles, 37° C.
Protocol: One of the applications for labelled cells deals with the identification of infection loci in patients affected by fever of unknown origin. This imply the labelling of Neutrophiles obtained from the standard procedures from a specimen of blood drawn from the patient. After labelling the neutrophiles have to be re-injected in the patient who is subjected to MRI examination.
The labelling of neutrophiles (ca. 2.5×10^6) has been carried out by incubating them (5 ml) in a medium containing 0.4 mg of particles of Gd-1 prepared according to example 5.
After 2.5 h of incubation at 37° C., the cells were harvested, whashed several times with PBS, then analyzed. The content of Gd per mg protein is 8.8×10^−8 moles, i.e. an amount that after the intracellular degradation of the particle, is well sufficient to allow the visualization of the labelled cells by MRI techniques.

[2] = target: lipase from Chromobacterium viscosum [EC 3.1.1.34] (Pseudarthrobacter phenanthrenivorans, UniProt P0DUB9); experiment: In vitro evaluation of lipase activity on Gd-1 particles (turbidity, R1); format: biochemical; details: HEPES buffer 50 mM, pH=8, 310K
Protocol: (§1) The activity of two different enzymes (esterase from swine liver [EC3.1.1.1] and lipase from Chromobacterium viscosum [EC 3.1.1.34]) was evaluated on Gd-1 particles.
(§2) This behaviour was confirmed by measurements of the water protons relaxation rate (R1) on a NMR spectrometer (Stelar Spinmaster) operating at 0.5T and 298K.
(§3) In the presence of the esterase (2 mg) R1 rapidly rises and after 2-3 hours reaches the value expected for a soluble Gd(III) complex resulting from the hydrolysis of the ester bonds of the Gd-1 complex. The differences in the two observed curves, and therefore the different reaction kinetics, can be ascribed to the different amounts of active units per mg of the two enzymes added to the Gd complex suspension.

macrophages esterase = experiment: Macrophage lysate esterase on Gd-1 (R1 increase); format: biochemical; details: about 4×10^6 macrophages lysed by sonication, about 1 mg Gd-1
Protocol: Afterwards, the macrophages esterase was tested. For this purpose, about 4×10^6 macrophages were subjected to lysis by sonication and about 1 mg Gd-1 was added to the lysate. The enzyme present in the cellular lysate rapidly cleaves the hydrophobic ester groups, thus releasing the soluble Gd complex. The formation of soluble Gd complex is well followed by the increase of water proton relaxation rate (FIG. 2). After about two hours the enzymatic reaction reaches the steady state.

[3] = system: esterase from swine liver [EC3.1.1.1]; experiment: In vitro evaluation of esterase activity on Gd-1 particles (turbidity, water proton relaxation rate R1); format: biochemical
Protocol: as §1, §2, §3

Chain of lipase from Chromobacterium viscosum [EC 3.1.1.34] (P0DUB9 whole entry): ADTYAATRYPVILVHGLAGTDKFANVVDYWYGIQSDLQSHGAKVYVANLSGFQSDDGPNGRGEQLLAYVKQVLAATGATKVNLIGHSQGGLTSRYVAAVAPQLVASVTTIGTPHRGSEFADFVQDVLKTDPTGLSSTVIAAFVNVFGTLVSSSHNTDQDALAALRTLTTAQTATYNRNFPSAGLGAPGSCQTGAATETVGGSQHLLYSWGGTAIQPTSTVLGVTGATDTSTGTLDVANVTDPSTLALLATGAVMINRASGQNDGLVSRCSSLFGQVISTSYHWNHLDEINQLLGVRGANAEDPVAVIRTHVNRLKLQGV

Structure (SMILES) | amount of Gd internalized (maximum value) (U937 cells) | fraction taken up by the cells (U937 cells) [%] | amount of complex internalised by the cells ([1]; about 2×10^6 cells, ca. 5 mg particles in 5 mL RPMI, 4 hours, 37° C.) | fraction of the internalised particles hydrolysed ([1]; after 4 hours incubation with particles) [%] | relaxivity of the cytosolic extract ([1]; after the following two hours of enzymatic hydrolysis) | fraction of internalised particles solubilised by cellular esterases ([1]; after two further hours of hydrolysis) [%] | relaxivity of the cytosolic extract ([1]; when cells are resuspended in a medium devoid of Gd-1) | relaxivity of the medium with suspended particles (U937 monocytes; culture medium, 37° C., particles not solubilised) [s⁻¹] | content of Gd per mg protein (neutrophiles) [mol] | turbidity of the suspension in the presence of the enzyme [2] | time for the enzymatic reaction to reach the steady state (macrophages esterase) | turbidity of the suspension in the presence of the enzyme ([3]; HEPES buffer 50 mM, pH=8, 310K) | time for R1 to reach the value expected for a soluble Gd(III) complex ([3]; esterase 2 mg) [h] | water protons relaxation rate (R1) in the absence of enzyme ([3]; no enzyme, 0.5T, 298K, not different from pure water) [s⁻¹] | presence of the complex in the cells (relaxation rate of water protons in the cytosolic extract) (U937 monocytes; soluble complex incubated in the same conditions as Gd-1 particles)
CCCCCCCCCCCCCCCCCC(=O)OCCOCCNC(=O)CN(CCN(CCN(CC(=O)O)CC(=O)NCCOCCOC(=O)CCCCCCCCCCCCCCCCC)CC(=O)O)CC(=O)O [Gd-1] | 2×10^−8 moles/mg of protein | ~10 | about 60 nmol | 50 | 3.7 | 80 | 2.5 | ~0.45 | 8.8e-08 | progressive decrease in turbidity | about two | progressive decrease in turbidity | 2 to 3 | 0.38 | –
CC(O)CN1CCN(CC(=O)[O-])CCN(CC(=O)[O-])CCN(CC(=O)[O-])CC1.[Gd+3] (stereo not drawn) [Gd-HPDO3A, reference compound] | – | – | – | – | – | – | – | – | – | – | – | – | – | – | complete absence
